Among the targets are Cytochrome P450 2D6 (Homo sapiens, UniProt P10635); Cytochrome P450 3A4 (Homo sapiens, UniProt P08684); Cytochrome P450 2C9 (Homo sapiens, UniProt P11712).
A further assay addresses T1, Protein skinhead-1 (Caenorhabditis elegans, UniProt P34707).
T1 sequence (P34707 whole entry): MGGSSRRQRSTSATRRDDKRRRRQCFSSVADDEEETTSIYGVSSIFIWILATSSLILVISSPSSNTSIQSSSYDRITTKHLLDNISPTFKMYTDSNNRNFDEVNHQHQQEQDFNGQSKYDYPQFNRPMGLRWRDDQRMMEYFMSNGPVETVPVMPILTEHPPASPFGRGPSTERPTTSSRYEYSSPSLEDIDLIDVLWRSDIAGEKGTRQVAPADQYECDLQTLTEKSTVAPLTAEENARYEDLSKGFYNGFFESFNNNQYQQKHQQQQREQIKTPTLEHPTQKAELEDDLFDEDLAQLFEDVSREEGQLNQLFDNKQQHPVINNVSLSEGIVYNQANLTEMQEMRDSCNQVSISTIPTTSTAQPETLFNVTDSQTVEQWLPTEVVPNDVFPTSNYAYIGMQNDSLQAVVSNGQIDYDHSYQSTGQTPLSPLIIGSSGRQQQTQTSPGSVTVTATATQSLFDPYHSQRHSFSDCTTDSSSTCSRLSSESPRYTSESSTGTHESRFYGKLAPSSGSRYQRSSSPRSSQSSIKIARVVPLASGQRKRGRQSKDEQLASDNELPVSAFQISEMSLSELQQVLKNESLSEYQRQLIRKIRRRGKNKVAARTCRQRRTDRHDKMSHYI
It is filed as functional.

In another assay the target is Genome polyprotein (dengue virus type 2, UniProt P29990). The assay can be described thus: flavivirus cap methylation enzyme inhibition – biochemical, confirmation dose response, primary screen (AID 588689). It is filed as functional.
Assay [1] in a line: blockers of HIV-1 envelope-mediated cell-cell fusion – cherry-pick, dose response (AID 652057). It is filed as functional, cell-based.
Assay [2] in a line: HIV-1 AD8 envelope cell-cell fusion blockers – cherry-pick, dose response (AID 652062).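 Also: luciferase signal from cell-cell fusion driven by HIV-1 clade B AD8 Env; potency is for inhibitors of fusion seen as a drop in luminescence.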 The class given is functional, cell-based.
For another assay, the target named is Cytochrome P450 2C19 (Homo sapiens, UniProt P33261). The assay can be described thus: Cytochrome panel assay with activity outcomes. Panel member name: p450-cyp2c19 Compounds with AC50 equal or less than 10 uM are considered active. It is filed as functional. The conditions noted are these: read-out: AC50.
Assay [3] is described as follows: viability of PTEN-deleted HCT116 cells – cell-based, HCT116 PTEN knockout, dose response (AID 1047).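 Also: HCT116 colon tumor cells with PTEN knocked out; cells exposed to compound for 60 hours before readout; potency for loss of cell viability measured by luminescence.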 It is filed as functional.
Assay [4] can be described thus: viability of HCT116 lacking mutant beta-catenin – cell-based, human colon tumor, dose response (AID 1045).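 Also: HCT116 colon tumor cells with beta catenin knocked out; cells exposed to compound for 60 hours.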 The class given is functional.
The target in assay [5] is T2, Polyadenylate-binding protein 1 (Homo sapiens, UniProt P11940). The assay can be described thus: MLLE binding blockers, Cy5 peptide tracer – biochemical, fluorescence polarization, Cy5-PAM2 peptide, secondary, miRNA deadenylation inhibitor project, dose response (AID 602260). It is filed as functional. As to conditions: read-out: IC50_Mean. (Polarisation of emitted light reports the rotation of a fluorescent probe.)

In assay [6] the target is T2, Polyadenylate-binding protein 1. The assay can be described thus: MLLE domain peptide-binding blockers, IC50 – biochemical, fluorescence polarization, FITC-PAM2 peptide, dose response (AID 602259). The class given is functional. As to conditions: read-out: IC50_Mean.
The nature of assay [7]: NIH3T3 cell viability loss – ATP luminescence, mouse fibroblasts, counter-screen, dose response (AID 2010).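 Also: cells exposed to compound for about 90 hours before reading.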 It is filed as functional, cell-based. Background: A counterscreen serves to expose hits that act by an unwanted route or on another target.
Assay [8] can be described thus: Trypanosoma cruzi growth suppression in host cells – NIH3T3 host cells, beta-gal luminescence, confirmation (AID 2044).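 Also: intracellular parasites grown in NIH/3T3 mouse fibroblasts as host cells; luminescent beta-galactosidase reporter signal from transgenic T. cruzi replicating inside host cells; inhibitors lower the luminescence signal.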 The class given is functional, cell-based.
For assay [9], the target named is T3, Corticotropin-releasing factor receptor 2/Corticotropin-releasing factor-binding protein (Homo sapiens, UniProt P24387+Q13324).
T3 sequence (Q13324 whole entry): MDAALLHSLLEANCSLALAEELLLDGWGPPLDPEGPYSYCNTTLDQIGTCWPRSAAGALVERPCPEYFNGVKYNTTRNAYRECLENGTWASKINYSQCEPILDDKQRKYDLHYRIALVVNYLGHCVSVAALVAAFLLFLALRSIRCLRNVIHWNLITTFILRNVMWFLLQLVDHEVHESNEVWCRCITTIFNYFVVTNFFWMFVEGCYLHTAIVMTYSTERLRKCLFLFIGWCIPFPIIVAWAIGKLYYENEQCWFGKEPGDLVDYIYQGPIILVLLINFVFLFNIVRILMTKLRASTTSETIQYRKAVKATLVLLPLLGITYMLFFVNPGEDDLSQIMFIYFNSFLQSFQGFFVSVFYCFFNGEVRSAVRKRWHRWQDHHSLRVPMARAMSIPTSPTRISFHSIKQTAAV
T3 sequence (P24387 whole entry): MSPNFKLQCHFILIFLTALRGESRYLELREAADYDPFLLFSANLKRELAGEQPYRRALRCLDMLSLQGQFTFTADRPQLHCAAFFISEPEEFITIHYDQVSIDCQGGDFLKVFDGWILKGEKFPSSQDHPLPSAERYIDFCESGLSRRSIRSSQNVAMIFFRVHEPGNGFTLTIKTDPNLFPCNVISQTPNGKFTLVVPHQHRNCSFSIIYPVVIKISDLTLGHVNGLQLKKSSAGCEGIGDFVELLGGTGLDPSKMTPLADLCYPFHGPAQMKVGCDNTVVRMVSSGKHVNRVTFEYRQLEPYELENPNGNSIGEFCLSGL
The assay can be described thus: activators of CRF receptor 2 with binding protein – uHTS hits, confirmation (AID 602473). The class given is functional. As to conditions: read-out: EC50_Mean.

A short description of assay [10]: Luminescence Cell-Based Dose Retest to Confirm Inhibitors of Cancer Stem Cells. [Related pubchem assays (depositor defined):AID2717, AID2721]. The conditions noted are these: Homo sapiens. It is filed as functional.
The target of assay [11] is T3, Corticotropin-releasing factor receptor 2/Corticotropin-releasing factor-binding protein. The assay can be described thus: Dose Response confirmation of uHTS hits for small molecule antagonists of the CRF-binding protein and CRF-R2 receptor complex. The class given is functional. As to conditions: read-out: IC50_Mean.
For the next assay, the target named is T4, Cytochrome P450 1A2 (Homo sapiens, UniProt P05177).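 Also: PubChem cytochrome P450 panel assay, CYP1A2 panel member.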
T4 sequence (P05177 whole entry): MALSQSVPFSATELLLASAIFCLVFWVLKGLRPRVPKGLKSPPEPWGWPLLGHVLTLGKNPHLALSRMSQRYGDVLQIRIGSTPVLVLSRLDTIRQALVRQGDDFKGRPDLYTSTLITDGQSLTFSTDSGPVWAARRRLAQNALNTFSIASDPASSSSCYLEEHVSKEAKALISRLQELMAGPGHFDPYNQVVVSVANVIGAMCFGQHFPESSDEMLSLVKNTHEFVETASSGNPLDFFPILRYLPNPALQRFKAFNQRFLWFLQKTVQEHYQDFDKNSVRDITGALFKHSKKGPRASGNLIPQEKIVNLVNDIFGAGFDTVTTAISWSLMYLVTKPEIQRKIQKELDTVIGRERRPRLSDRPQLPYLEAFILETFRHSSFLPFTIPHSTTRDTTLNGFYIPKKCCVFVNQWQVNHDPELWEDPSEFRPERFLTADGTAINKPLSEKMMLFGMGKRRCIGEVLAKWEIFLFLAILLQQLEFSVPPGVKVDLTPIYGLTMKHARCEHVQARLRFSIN

Molecules are shown by their SMILES. Active and inactive are the calls of the source. Some results are limits rather than exact numbers.

Sequence of Cytochrome P450 2D6 (P10635 whole entry): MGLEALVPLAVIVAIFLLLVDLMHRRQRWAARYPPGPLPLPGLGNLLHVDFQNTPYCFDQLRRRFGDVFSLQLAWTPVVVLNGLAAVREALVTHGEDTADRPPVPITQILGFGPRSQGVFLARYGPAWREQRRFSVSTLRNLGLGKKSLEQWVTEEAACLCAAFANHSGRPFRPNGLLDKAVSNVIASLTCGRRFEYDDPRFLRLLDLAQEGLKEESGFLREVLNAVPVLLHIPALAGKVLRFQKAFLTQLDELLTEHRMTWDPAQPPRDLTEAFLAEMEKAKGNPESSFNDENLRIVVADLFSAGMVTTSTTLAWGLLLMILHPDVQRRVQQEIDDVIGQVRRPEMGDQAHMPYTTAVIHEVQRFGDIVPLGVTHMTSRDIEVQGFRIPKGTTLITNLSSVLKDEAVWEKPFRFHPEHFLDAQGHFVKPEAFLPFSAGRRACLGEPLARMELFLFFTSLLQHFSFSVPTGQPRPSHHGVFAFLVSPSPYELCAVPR
Sequence of Cytochrome P450 2C9 (P11712 whole entry): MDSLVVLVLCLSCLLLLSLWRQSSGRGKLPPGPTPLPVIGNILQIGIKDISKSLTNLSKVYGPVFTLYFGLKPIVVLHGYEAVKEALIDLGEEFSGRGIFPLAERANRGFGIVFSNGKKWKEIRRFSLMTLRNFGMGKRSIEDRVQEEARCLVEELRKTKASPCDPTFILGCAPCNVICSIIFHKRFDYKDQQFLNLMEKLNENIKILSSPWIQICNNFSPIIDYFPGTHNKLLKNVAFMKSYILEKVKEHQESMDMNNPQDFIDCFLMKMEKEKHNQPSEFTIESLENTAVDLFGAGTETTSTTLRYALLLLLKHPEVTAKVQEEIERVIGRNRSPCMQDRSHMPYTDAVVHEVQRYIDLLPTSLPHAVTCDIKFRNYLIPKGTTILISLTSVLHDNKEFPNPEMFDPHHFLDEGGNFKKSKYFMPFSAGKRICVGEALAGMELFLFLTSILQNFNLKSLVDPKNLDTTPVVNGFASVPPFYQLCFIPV
Sequence of Genome polyprotein (P29990 2492-3391 limits assumed): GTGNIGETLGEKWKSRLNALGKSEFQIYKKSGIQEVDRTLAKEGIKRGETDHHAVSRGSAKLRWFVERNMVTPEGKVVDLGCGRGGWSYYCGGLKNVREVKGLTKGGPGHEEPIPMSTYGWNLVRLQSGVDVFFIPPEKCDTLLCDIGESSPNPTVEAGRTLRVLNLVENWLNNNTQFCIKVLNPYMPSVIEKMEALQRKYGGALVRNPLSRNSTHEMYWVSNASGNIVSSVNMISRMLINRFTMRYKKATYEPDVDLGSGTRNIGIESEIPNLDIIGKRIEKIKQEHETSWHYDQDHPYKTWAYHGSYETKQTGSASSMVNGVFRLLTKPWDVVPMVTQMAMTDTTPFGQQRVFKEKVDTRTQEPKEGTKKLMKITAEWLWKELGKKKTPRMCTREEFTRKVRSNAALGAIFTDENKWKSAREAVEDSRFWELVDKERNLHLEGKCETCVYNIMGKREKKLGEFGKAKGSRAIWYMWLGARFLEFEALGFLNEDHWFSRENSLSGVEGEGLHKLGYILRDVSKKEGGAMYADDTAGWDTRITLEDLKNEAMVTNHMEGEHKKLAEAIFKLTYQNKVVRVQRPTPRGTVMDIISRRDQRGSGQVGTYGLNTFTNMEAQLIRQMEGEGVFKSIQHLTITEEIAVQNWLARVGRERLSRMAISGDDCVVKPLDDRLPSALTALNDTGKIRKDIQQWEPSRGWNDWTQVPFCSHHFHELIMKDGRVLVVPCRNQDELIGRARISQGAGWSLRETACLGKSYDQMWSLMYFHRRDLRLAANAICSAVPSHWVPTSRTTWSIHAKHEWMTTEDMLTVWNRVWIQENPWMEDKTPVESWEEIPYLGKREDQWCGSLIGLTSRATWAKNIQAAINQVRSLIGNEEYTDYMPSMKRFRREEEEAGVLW
Sequence of Cytochrome P450 3A4 (P08684 whole entry): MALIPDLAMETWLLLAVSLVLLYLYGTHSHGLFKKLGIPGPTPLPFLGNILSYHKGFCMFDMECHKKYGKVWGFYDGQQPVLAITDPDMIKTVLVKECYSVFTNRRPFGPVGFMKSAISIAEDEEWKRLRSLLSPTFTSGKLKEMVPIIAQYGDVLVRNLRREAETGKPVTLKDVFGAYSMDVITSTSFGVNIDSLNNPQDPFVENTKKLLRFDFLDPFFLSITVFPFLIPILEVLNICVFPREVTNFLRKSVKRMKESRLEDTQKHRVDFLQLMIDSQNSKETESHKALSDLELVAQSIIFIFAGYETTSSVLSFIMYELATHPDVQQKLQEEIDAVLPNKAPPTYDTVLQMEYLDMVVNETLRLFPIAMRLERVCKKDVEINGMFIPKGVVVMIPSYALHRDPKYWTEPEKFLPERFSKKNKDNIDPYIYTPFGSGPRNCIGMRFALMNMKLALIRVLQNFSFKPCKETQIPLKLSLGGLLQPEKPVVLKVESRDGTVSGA
T2 sequence (P11940 whole entry): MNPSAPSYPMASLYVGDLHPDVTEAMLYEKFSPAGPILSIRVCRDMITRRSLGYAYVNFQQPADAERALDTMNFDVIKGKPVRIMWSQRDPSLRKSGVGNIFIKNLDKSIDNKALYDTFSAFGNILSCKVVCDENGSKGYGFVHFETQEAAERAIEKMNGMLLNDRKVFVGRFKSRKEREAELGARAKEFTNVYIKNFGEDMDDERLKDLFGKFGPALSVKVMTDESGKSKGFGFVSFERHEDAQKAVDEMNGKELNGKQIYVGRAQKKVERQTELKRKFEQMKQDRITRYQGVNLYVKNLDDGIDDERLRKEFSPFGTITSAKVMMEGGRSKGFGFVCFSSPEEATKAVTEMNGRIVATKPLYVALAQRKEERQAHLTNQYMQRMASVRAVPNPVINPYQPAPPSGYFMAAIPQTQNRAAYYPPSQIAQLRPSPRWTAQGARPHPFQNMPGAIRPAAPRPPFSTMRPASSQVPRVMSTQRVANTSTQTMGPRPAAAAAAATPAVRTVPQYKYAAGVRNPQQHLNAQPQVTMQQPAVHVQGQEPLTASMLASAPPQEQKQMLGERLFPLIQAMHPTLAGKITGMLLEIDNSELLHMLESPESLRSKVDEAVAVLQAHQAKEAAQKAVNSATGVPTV
Sequence of Cytochrome P450 2C19 (P33261 whole entry): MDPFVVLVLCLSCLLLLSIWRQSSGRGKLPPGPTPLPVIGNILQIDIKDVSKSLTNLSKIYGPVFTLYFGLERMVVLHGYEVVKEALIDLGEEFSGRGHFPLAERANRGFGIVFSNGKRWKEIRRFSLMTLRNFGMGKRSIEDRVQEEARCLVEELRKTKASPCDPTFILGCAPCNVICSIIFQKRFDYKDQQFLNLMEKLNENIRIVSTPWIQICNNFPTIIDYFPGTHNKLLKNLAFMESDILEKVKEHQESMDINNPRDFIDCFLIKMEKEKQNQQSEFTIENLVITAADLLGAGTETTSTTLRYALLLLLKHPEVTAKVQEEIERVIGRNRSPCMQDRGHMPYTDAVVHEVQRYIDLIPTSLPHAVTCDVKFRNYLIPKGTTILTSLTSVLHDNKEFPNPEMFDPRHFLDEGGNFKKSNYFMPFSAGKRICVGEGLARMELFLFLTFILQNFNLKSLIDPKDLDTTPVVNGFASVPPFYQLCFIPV

As to `FC(F)(F)c1cccc(-c2nc(-c3ccncc3)no2)c1`, the IC50 at Protein skinhead-1 was > 100 µM (inactive).

For `N#Cc1c(NC(=O)C(F)(F)F)sc2c3c(=O)c4ccccc4c(=O)c=3oc3ccccc3c12`, the results for the AC50 at Cytochrome P450 2D6 and on Cytochrome P450 3A4 were 0.794 µM (inconclusive) and 3.98 µM (inconclusive), respectively.

For `CN1CCC(N(C)CC(=O)Nc2ccccc2N2CCOCC2)CC1`, at Protein skinhead-1, the IC50 was > 100 µM (inactive).

In the case of `Cc1cccc2cc(C#N)c(N3CCCC3)nc12`, the IC50 at Protein skinhead-1 was > 100 µM (inactive).

With `O=C1OC(c2ccccc2)C(C(=O)c2ccc(Cl)cc2)=C1O` (stereo not drawn), on Genome polyprotein, the IC50 is 83.4 µM (active).

Regarding `C[C@H]1CN([C@@H](C)CO)C(=O)c2ccccc2-c2ccccc2CO[C@H]1CN(C)Cc1cccc(F)c1`, the results for the AC50 in assay [1] and in [2] were < 0.26 µM (active) and 0.416 µM (active), respectively.

On to `O=C(Nc1ccc(OC(F)(F)F)cc1)c1n[nH]c(Cn2cncn2)n1`, for which the AC50 on Cytochrome P450 2D6 was 20 µM (inconclusive); on Cytochrome P450 2C19, 2.51 µM (inconclusive); at Cytochrome P450 2C9, 11.2 µM (inconclusive); on Cytochrome P450 3A4, 15.8 µM (inconclusive).

Regarding `O=C(c1ccc(COc2ccc(F)cc2)o1)n1cccn1`, at Cytochrome P450 2D6, the AC50 was 0.00562 µM (inconclusive).

As for `Cc1ccc(-c2nc(CSCC(=O)N3CCN(c4ccccn4)CC3)c(C)o2)cc1`, the EC50 was 35 µM (active) in assay [3] and 17.1 µM (active) in assay [4].

In the case of `COC(=O)C1=C(C(=O)OC)C(c2ccccc2O)c2sc(O)nc2S1` (stereo not drawn), the IC50 in [5] is > 66 µM (inactive); in assay [6], > 66 µM (inactive); on Genome polyprotein it was 93.2 µM (active).

Take `COc1ccc(-c2c3c(nc4sc5c(Cl)nc(C)nc5c24)CCC3)cc1`: the EC50 was 4.46 µM (active) in [3] and 1.59 µM (active) in assay [4].

Consider `CCOC(=O)c1c(NC(=O)c2cc3n(n2)C(C(F)(F)F)CC(c2cccs2)N3)sc(C)c1C` (stereo not drawn), for which the EC50 in assay [3] was 2.45 µM (active); in assay [4] it was 2.59 µM (active).

As to `Cc1cccc(N(CC(O)CON=C2c3ccccc3-c3ccccc32)S(C)(=O)=O)c1` (stereo not drawn), the EC50 in assay [7] is > 60 µM (not active); in assay [3] it was 28.8 µM (active); in [8], 3.22 µM (active); in assay [4], 29.6 µM (active).

Take `CCc1cc2cc(C)cc(C)c2nc1SCC(=O)N1CCN(C(=O)c2ccco2)CC1`: in [9], the EC50 was > 53 µM (inactive). The AC50 in assay [10] is 12.8 µM (active). In addition, the IC50 in assay [11] was > 47.1 µM (inactive).

Regarding `COc1cnc(SCc2ccc(Cl)cc2)nc1Cl`, the concentration at half-maximal activity (AC50) on Cytochrome P450 2D6 was 17.8 µM (inconclusive).

In the case of `CO[C@H]1C=C2CCN(C)[C@@H]2[C@@H]2c3cc4c(cc3C(=O)O[C@H]21)OCO4`, the half-maximal activity concentration (AC50) at Cytochrome P450 2D6 is 10 µM (inconclusive); at Cytochrome P450 1A2, 12.6 µM (inconclusive).

For the molecule `CCSc1nnc(-c2ccc(Cl)cc2Cl)o1`, the IC50 at Protein skinhead-1 is 29.7 µM (active).

For the molecule `CN(C)c1ncc2nc(CCc3ccccc3)c(=O)n(C3CC3)c2n1`, the AC50 on Cytochrome P450 2D6 and on Cytochrome P450 3A4 was 10 µM (inconclusive) each time.

Regarding `C#CCOc1c(Cl)cc(/C=C2/C(=O)ON=C2C)cc1OCC`, at Genome polyprotein, the IC50 is > 100 µM (active).

As to `Cc1ccc(C(=O)/C=C/c2ccc(Br)cc2)o1`, the EC50 in assay [3] is 8.44 µM (active); in [4], 6.62 µM (active).

Consider `CCOc1ccc(NC(=O)C2CCCN(S(=O)(=O)c3c(C)nn(C)c3C)C2)cc1` (stereo not drawn), for which the IC50 on Protein skinhead-1 is > 100 µM (inactive).

Consider `Cc1ccc(CCNC(=O)c2coc3nc4ccccc4nc23)cc1`, for which the IC50 on Protein skinhead-1 is > 100 µM (inactive).

`O=C(Nc1nc2ccc(Cl)cc2s1)c1ccc(N2CCCCC2)c([N+](=O)[O-])c1`: the EC50 in [3] was 12.2 µM (active); in assay [4], 13.5 µM (active).

For `COc1cc(C[C@H](C)[C@H](C)Cc2ccc3c(c2)OCO3)ccc1O` [AUSTROBAILIGNAN 6], the EC50 in assay [9] is > 53 µM (inactive). For the same molecule, in assay [10], the AC50 is 5.23 µM (active). For the same molecule, in assay [11], the IC50 was > 47.1 µM (inactive).

`CCCCCC1=C2CNC(C)(C(=O)OC)C=C2C(C)C1=O` (stereo not drawn): the half-maximal activity concentration (AC50) at Cytochrome P450 2D6 is 25.1 µM (inconclusive); at Cytochrome P450 1A2, 25.1 µM (inconclusive); at Cytochrome P450 2C9, 31.6 µM (inconclusive).

Take `COCCN1C(=O)CC(NNC(=O)c2ccc(S(=O)(=O)N3CCCC3)cc2)C1=O` (stereo not drawn): the IC50 at Protein skinhead-1 was > 100 µM (inactive).

As to `FC(F)(F)C1=CC(c2ccc(Cl)cc2)=NCCN1`, on Protein skinhead-1, the IC50 is > 100 µM (inactive).

On to `COc1ccc(CN2CCCC(C(=O)c3cccc(Cl)c3)C2)cc1` (stereo not drawn), for which the IC50 on Protein skinhead-1 is > 100 µM (inactive).

Consider `COc1ccc(Cl)cc1C(=O)Nc1ccccc1N1CCCCC1`, for which, at Protein skinhead-1, the IC50 is > 100 µM (inactive).

Turning to `CCNC(=O)C[C@H]1CC[C@@H]2[C@@H](COc3ccc(NC(=O)Nc4cccc(OC)c4)cc3C(=O)N2C)O1`, the AC50 is 37.7 µM (active) in [1] and 50.2 µM (active) in assay [2].

With `O=C(OC[C@@H](O)CO)c1ccccc1Nc1ccnc2cc(Cl)ccc12`, the AC50 at Cytochrome P450 2D6 was 12.6 µM (inconclusive); on Cytochrome P450 2C19, 3.98 µM (inconclusive); on Cytochrome P450 2C9 it was 15.8 µM (inconclusive).

Turning to `CC(C)CC1CC(=O)OC1(C)C(=O)CSc1nc2ccccc2s1` (stereo not drawn), the AC50 at Cytochrome P450 2D6 is 3.55 µM (inconclusive).

As usually defined, the AC50 is the concentration giving half of the maximal activity seen.

(Values after ChEMBL document CHEMBL1201862, “PubChem BioAssay data set” (2004).)
